Measured values taken from US20040086901A1, “Database for analyzing gene function and method of analyzing gene function by dspa” (priority 2000, published 2004).
Non-standard residues stand in square brackets, D forms with d. Residues, ends and D or L forms follow the SMILES beside them. Nle = CCCC[C@H](N)C(=O)O

Legend:
Assay type in all cases: cell-based, mouse
[1] = tested on: NIH3T3 cells overexpressing caspase-3; test: MTT cell viability, caspase-3 overexpressing cells vs parental line; conditions: caspase-3 high-expressing cells / parental cell line, 3 to 4 days
Method: (§1) With regard to the function-known genes, the genes shown in the left column of Table 2 were used. With regard to the drugs, those shown in Table 1 were dissolved in DMSO to an extent of 100-fold of the maximum concentration for the search of the drugs and used. With regard to the cells, incubated NIH3T3 or ras-NIH3T3 cells were used.
(§2) Full-length cDNA of each function-known genes was incorporated into an expression vector (pRc-CMV, etc.) and transfected into NIH3T3 cells by a common method. Transformed cells were isolated using the resistance to G-418 as an index and the expression of the transfected gene in each cell was investigated by Western blotting method to select a highly expressing line.
(§3) Cell viabilities were measured according to the following procedures.
(§4) 1) From the 2nd to the 11th rows of a 96-well plate were filled with DMEM (50 μl). The 12th row was filled with 100 μl of DMEM.
(§5) 2) The 1st row was filled with 98 μl of DMEM.
(§6) 3) Drugs (2 μl each) were added into the 1st row.
(§7) 4) Continuous double-dilution was conducted from the 1st to the 9th rows. Fifty μl were taken out from the 9th row and discarded. The plate was preserved in a CO2 incubator.
(§8) 5) Cells (each high-expressing cells and the parental cell line) were detached from the medium using a trypsin solution, suspended in 10% CS-DMEM and transferred to a test tube and cell numbers (cell/ml) were counted.
(§9) 6) The cells were diluted to a concentration of 1×10^5 cells/ml, and 50 μl of the cell suspension were added to the 1st to the 11th rows of the plate followed by gently stirring.
(§10) 7) The plate was transferred to the CO2 incubator and incubated for 3 to 4 days.
(§11) 8) MTT (5 mg/ml in PBS) (10 μl) was added to the 1st to the 12th rows of the plate and incubated in the CO2 incubator at 37° C. for 4 hours.
(§12) 9) A reaction stop solution (0.04N HCl in isopropanol) (150 μl) was added followed by mixing well and being allowed to stand at room temperature for about 2 hours.
(§13) 10) Coloration of formazan which was a metabolite of the MTT dye was measured using a microplate reader. The measurement wavelength was 574 nm and the reference wavelength was 655 nm. The 10th and the 11th rows of the plate were 100% controls and the 12th row was a 0% control.
(§14) As an index for the sensitivity of highly gene-expressing cells and the parental cell line to various drugs, each of the IC40 values thereof was specified and ratios of the IC40 values were calculated. […] After that, logarithmic values of ratios of IC40 values were calculated from each gene.

[2] = tested on: NIH3T3 cells overexpressing TK; test: MTT cell viability, TK overexpressing cells vs parental line; conditions: TK high-expressing cells / parental cell line, 3 to 4 days
Method: as §1, §2, §3, §4, §5, §6, §7, §8, §9, §10, §11, §12, §13
(§15) As an index for the sensitivity of highly gene-expressing cells and the parental cell line to various drugs, each of the IC40 values thereof was specified and ratios of the IC40 values were calculated. FIG. 2 and FIG. 3 are the examples where ratios of IC40 values were calculated from a curve showing the dependency on the concentration of the chemical versus the viability. After that, logarithmic values of ratios of IC40 values were calculated from each gene.

[3] = tested on: NIH3T3 cells overexpressing cystatin alpha; test: MTT cell viability, cystatin alpha overexpressing cells vs parental line; conditions: cystatin alpha high-expressing cells / parental cell line, 3 to 4 days
Method: as §1, §2, §3, §4, §5, §6, §7, §8, §9, §10, §11, §12, §13, §15

[4] = tested on: NIH3T3 cells overexpressing coup; test: MTT cell viability, coup overexpressing cells vs parental line; conditions: coup high-expressing cells / parental cell line, 3 to 4 days
Method: as §1, §2, §3, §4, §5, §6, §7, §8, §9, §10, §11, §12, §13, §15

[5] = tested on: NIH3T3 cells overexpressing HNF3b; test: MTT cell viability, HNF3b overexpressing cells vs parental line; conditions: HNF3b high-expressing cells / parental cell line, 3 to 4 days
Method: as §1, §2, §3, §4, §5, §6, §7, §8, §9, §10, §11, §12, §13, §14

[6] = tested on: NIH3T3 cells overexpressing caspase-2; test: MTT cell viability, caspase-2 overexpressing cells vs parental line; conditions: caspase-2 high-expressing cells / parental cell line, 3 to 4 days
Method: as §1, §2, §3, §4, §5, §6, §7, §8, §9, §10, §11, §12, §13, §15

[7] = tested on: NIH3T3 cells overexpressing v-src; test: MTT cell viability, v-src overexpressing cells vs parental line; conditions: v-src high-expressing cells / parental cell line, 3 to 4 days
Method: as §1, §2, §3, §4, §5, §6, §7, §8, §9, §10, §11, §12, §13, §15

[8] = tested on: NIH3T3 cells overexpressing CaMKIIa; test: MTT cell viability, CaMKIIa overexpressing cells vs parental line; conditions: CaMKIIa high-expressing cells / parental cell line, 3 to 4 days
Method: as §1, §2, §3, §4, §5, §6, §7, §8, §9, §10, §11, §12, §13, §14

[9] = tested on: NIH3T3 cells overexpressing p38-DN; test: MTT cell viability, p38-DN overexpressing cells vs parental line; conditions: p38-DN high-expressing cells / parental cell line, 3 to 4 days
Method: as §1, §2, §3, §4, §5, §6, §7, §8, §9, §10, §11, §12, §13, §14

[10] = tested on: NIH3T3 cells overexpressing PKCalpha-KN; test: MTT cell viability, PKCalpha-KN overexpressing cells vs parental line; conditions: 3 to 4 days
Method: as §1, §2, §3, §4, §5, §6, §7, §8, §9, §10, §11, §12, §13, §14

[11] = tested on: NIH3T3 cells overexpressing cystatin E; test: MTT cell viability, cystatin E overexpressing cells vs parental line; conditions: cystatin E high-expressing cells / parental cell line, 3 to 4 days
Method: as §1, §2, §3, §4, §5, §6, §7, §8, §9, §10, §11, §12, §13, §15

[12] = tested on: NIH3T3 cells overexpressing CP-antisense; test: MTT cell viability, CP-antisense cells vs parental line; conditions: 3 to 4 days
Method: as §1, §2, §3, §4, §5, §6, §7, §8, §9, §10, §11, §12, §13, §15

[13] = tested on: NIH3T3 cells overexpressing Ha-ras; test: MTT cell viability, drug sensitivity of Ha-ras overexpressing cells vs parental line; conditions: Ha-ras high-expressing cells / parental cell line, 3 to 4 days
Method: as §1, §2, §3, §4, §5, §6, §7, §8, §9, §10, §11, §12, §13, §14

[14] = tested on: NIH3T3 cells overexpressing HNF1; test: MTT cell viability, HNF1 overexpressing cells vs parental line; conditions: HNF1 high-expressing cells / parental cell line, 3 to 4 days
Method: as §1, §2, §3, §4, §5, §6, §7, §8, §9, §10, §11, §12, §13, §14

[15] = tested on: NIH3T3 cells overexpressing p33/ING1; test: MTT cell viability, p33/ING1 overexpressing cells vs parental line; conditions: p33/ING1 high-expressing cells / parental cell line, 3 to 4 days
Method: as §1, §2, §3, §4, §5, §6, §7, §8, §9, §10, §11, §12, §13, §15

[16] = tested on: NIH3T3 cells overexpressing DAN; test: MTT cell viability, DAN overexpressing cells vs parental line; conditions: DAN high-expressing cells / parental cell line, 3 to 4 days
Method: as §1, §2, §3, §4, §5, §6, §7, §8, §9, §10, §11, §12, §13, §15

[17] = tested on: NIH3T3 cells overexpressing caspase-1; test: MTT cell viability, caspase-1 overexpressing cells vs parental line; conditions: caspase-1 high-expressing cells / parental cell line, 3 to 4 days
Method: as §1, §2, §3, §4, §5, §6, §7, §8, §9, §10, §11, §12, §13, §14

[18] = tested on: NIH3T3 cells overexpressing RhoA; test: MTT cell viability, RhoA overexpressing cells vs parental line; conditions: RhoA high-expressing cells / parental cell line, 3 to 4 days
Method: as §1, §2, §3, §4, §5, §6, §7, §8, §9, §10, §11, §12, §13, §15

[19] = tested on: NIH3T3 cells overexpressing erbB2; test: MTT cell viability, erbB2 overexpressing cells vs parental line; conditions: erbB2 high-expressing cells / parental cell line, 3 to 4 days
Method: as §1, §2, §3, §4, §5, §6, §7, §8, §9, §10, §11, §12, §13, §15

[20] = tested on: NIH3T3 cells overexpressing Regucalcin; test: MTT cell viability, Regucalcin overexpressing cells vs parental line; conditions: Regucalcin high-expressing cells / parental cell line, 3 to 4 days
Method: as §1, §2, §3, §4, §5, §6, §7, §8, §9, §10, §11, §12, §13, §15

[21] = PKCalpha-KN (first of two lines) high-expressing cells / parental cell line
[22] = PKCalpha-KN (second of two lines) high-expressing cells / parental cell line

Molecule	logarithmic value of ratio of IC40 values [1]	logarithmic value of ratio of IC40 values [2]	logarithmic value of ratio of IC40 values [3]	logarithmic value of ratio of IC40 values [4]	logarithmic value of ratio of IC40 values [5]	logarithmic value of ratio of IC40 values [6]	logarithmic value of ratio of IC40 values [7]	logarithmic value of ratio of IC40 values [8]	logarithmic value of ratio of IC40 values [9]	logarithmic value of ratio of IC40 values [10, 21]	logarithmic value of ratio of IC40 values [10, 22]	logarithmic value of ratio of IC40 values [11]	logarithmic value of ratio of IC40 values [12]	logarithmic value of ratio of IC40 values [13]	logarithmic value of ratio of IC40 values [14]	logarithmic value of ratio of IC40 values [15]	logarithmic value of ratio of IC40 values [16]	logarithmic value of ratio of IC40 values [17]	logarithmic value of ratio of IC40 values [18]	logarithmic value of ratio of IC40 values [19]	further results
COc1ccc2c(c1)CC[C@@H]1[C@@H]2CC[C@]2(C)[C@@H](NCCCCCCN3C(=O)C=CC3=O)CC[C@@H]12 [U73122]	0.53	0.00	0.04	0.00	−0.31	−0.02	−0.59	−0.05	0.00	−0.33	−0.97	−0.07	−0.10	−0.19	0.07	0.28	0.36	0.53	0.12	−0.96	logarithmic value of ratio of IC40 values [20]: −0.66
CCCC[C@@H](C=O)NC(=O)[C@H](CC(C)C)NC(=O)[C@H](CC(C)C)NC(C)=O [ALLN] (Ac-Leu-Leu-[Nle]-aldehyde)	−0.09	0.00	0.07	0.06	0.28	−0.04	0.10	0.00	0.04	0.11	−0.01	0.19	0.00	0.15	0.16	0.08	0.00	−0.04	0.00	−0.05	logarithmic value of ratio of IC40 values [20]: 0.00
ICE inhibitor-III [ICEin-3]	0.13	−0.15	0.32	−0.11	−0.09	0.04	−0.14	0.00	−0.11	0.12	0.33	0.07	−0.19	0.32	0.20	−0.15	0.00	0.11	0.19	0.18	logarithmic value of ratio of IC40 values [20]: 0.00
